From patent US20240197938A1, “ANTIMICROBIAL COMPOUNDS BASED ON GLUCOHEPTONIC ACIDS AND THEIR SALTS” (HARCROS CHEMICALS, INC., priority 2021, published 2024)

What was measured:
Type in all cases: cell-based
[1] = test system: Staphylococcus aureus; assay: ASTM E2315-16 Time-Kill Procedure; details: for Log Reduction: 30 seconds; for log reduction: 10 minutes
Experimental: (§1) Select compounds were tested for antimicrobial activity using ASTM method […]-16 (Standard Guide for Assessment of Antimicrobial Activity using a Time-Kill Procedure). Six microbes were tested: Candida albicans, Staphylococcus aureus, Staphylococcus epidermidis. Escherichia coli, Salmonella abony, and Listeria monocytogenes. Four chlorhexidine salts were tested: chlorhexidine di-α-glucoheptonate (Sample G), chlorhexidine di-β73-glucoheptonate (Sample H), chlorhexidine digluconate (Sample I), and chlorhexidine diacetate (Sample P). Both chlorhexidine diglucoheptonate salts were prepared at a 2:1 molar ratio of glucoheptonic acid to chlorhexidine. Dilutions of each salt were prepared using sterile water (20-30 ppm hardness), to achieve the desired wt. % concentration. Two glucoheptonic acids were evaluated for antimicrobial activity against the same six microbes as Example 13. Sample L was α-glucoheptonic acid. Sample M was β73-glucoheptonic acid. Benzalkonium salts were also tested using the same procedure as set forth in Example 13. The samples were benzalkonium chloride (C12-C16) (Sample C), benzalkonium chloride (C12-C14) (Sample D), benzalkonium chloride in combination with a stoichiometric amount of α-glucoheptonate (Sample F), and benzalkonium chloride in combination with a molar excess of α-glucoheptonate (Sample N). Sample F was prepared by mixing and extensively heating a stoichiometric quantity (1:1) of sodium α-glucoheptonate with benzalkonium chloride, typified by the C12-14 alkyl chain. Sample N was prepared by simply blending benzalkonium chloride, typified by the C12-16 chain, with a molar excess of sodium α-glucoheptonate (1.6:1). Both Samples F and N contain sodium chloride.

[2] = test system: Staphylococcus epidermidis; assay: ASTM E2315-16 Time-Kill Procedure; details: for Log Reduction: 30 seconds; for log reduction: 10 minutes
Experimental: as §1

[3] = test system: Candida albicans; assay: ASTM E2315-16 Time-Kill Procedure; details: for Log Reduction (LR): 5.0 % w/w; for Log Reduction: 30 seconds; for log reduction: 10 minutes
Experimental: as §1

[4] = test system: all microbes (Candida albicans, Staphylococcus aureus, Staphylococcus epidermidis, Escherichia coli, Salmonella abony, Listeria monocytogenes); assay: ASTM E2315-16 Time-Kill Procedure, average across all microbes; details: for Log Reduction, Average, all microbes: 30 seconds; for average Log Reduction (LR) in microbial population across all microbes / log reduction, Average, all microbes: 10 minutes
Experimental: Select compounds were tested for antimicrobial activity using ASTM method […]-16 (Standard Guide for Assessment of Antimicrobial Activity using a Time-Kill Procedure). Six microbes were tested: Candida albicans, Staphylococcus aureus, Staphylococcus epidermidis. Escherichia coli, Salmonella abony, and Listeria monocytogenes. Four chlorhexidine salts were tested: chlorhexidine di-α-glucoheptonate (Sample G), chlorhexidine di-β73-glucoheptonate (Sample H), chlorhexidine digluconate (Sample I), and chlorhexidine diacetate (Sample P). Both chlorhexidine diglucoheptonate salts were prepared at a 2:1 molar ratio of glucoheptonic acid to chlorhexidine. Dilutions of each salt were prepared using sterile water (20-30 ppm hardness), to achieve the desired wt. % concentration. Samples G, H, I, and P were also tested at a concentration of 0.60 wt % active and evaluated for the average Log Reduction in microbial population at 10 minutes, across all microbes. A further test was conducted at a concentration of 1.0 wt % active and evaluated for the average Log Reduction in microbial population at 10 minutes, across all microbes. Benzalkonium salts were also tested using the same procedure as set forth in Example 13. The samples were benzalkonium chloride (C12-C16) (Sample C), benzalkonium chloride (C12-C14) (Sample D), benzalkonium chloride in combination with a stoichiometric amount of α-glucoheptonate (Sample F), and benzalkonium chloride in combination with a molar excess of α-glucoheptonate (Sample N). Sample F was prepared by mixing and extensively heating a stoichiometric quantity (1:1) of sodium α-glucoheptonate with benzalkonium chloride, typified by the C12-14 alkyl chain. Sample N was prepared by simply blending benzalkonium chloride, typified by the C12-16 chain, with a molar excess of sodium α-glucoheptonate (1.6:1). Both Samples F and N contain sodium chloride. A further antimicrobial test was conducted to determine the log reduction at 10 minutes. Samples C, D, F, and N are as defined above.

[5] = test system: Listeria monocytogenes; assay: ASTM E2315-16 Time-Kill Procedure; details: for Log Reduction: 30 seconds; for log reduction: 10 minutes
Experimental: as §1, with “concentration.” for “concentration. Two glucoheptonic acids were evaluated for antimicrobial activity against the same six microbes as Example 13. Sample L was α-glucoheptonic acid. Sample M was β73-glucoheptonic acid.”

[6] = test system: Escherichia coli; assay: ASTM E2315-16 Time-Kill Procedure; details: for Log Reduction: 30 seconds; for log reduction: 10 minutes
Experimental: as §1, with “concentration.” for “concentration. Two glucoheptonic acids were evaluated for antimicrobial activity against the same six microbes as Example 13. Sample L was α-glucoheptonic acid. Sample M was β73-glucoheptonic acid.”

[7] = test system: Salmonella abony; assay: ASTM E2315-16 Time-Kill Procedure; details: for Log Reduction: 30 seconds; for log reduction: 10 minutes
Experimental: as §1, with “concentration.” for “concentration. Two glucoheptonic acids were evaluated for antimicrobial activity against the same six microbes as Example 13. Sample L was α-glucoheptonic acid. Sample M was β73-glucoheptonic acid.”

[8] = 2.5 % w/w, contact time 10 minutes
[9] = 5.0 % w/w, contact time 5 minutes
[10] = 5.0 % w/w, contact time 10 minutes

`O=C(O)[C@H](O)[C@H](O)[C@@H](O)[C@H](O)[C@H](O)CO` [Sample M, β73-glucoheptonic acid] was tested, and the “Log Reduction (LR)” value [1, 8] was 3.13, the “Log Reduction (LR)” value [1, 9] was 4.07 and the “Log Reduction (LR)” value [1, 10] was 4.13. The “Log Reduction (LR)” value ([2]; 1.0 % w/w, contact time 10 minutes) was 3.47, the “Log Reduction (LR)” value ([2]; 2.5 % w/w, contact time 5 minutes) was 3.17 and the “Log Reduction (LR)” value [2, 8] was 3.50. The “Log Reduction (LR)” value [2, 9] was 3.39, the “Log Reduction (LR)” value [2, 10] was 3.47 and the “Log Reduction (LR)” value ([3]; contact time 5 minutes) was 3.47. The “Log Reduction (LR)” value ([3]; contact time 10 minutes) was 4.00.

For `CC(=O)O.CC(=O)O.NC(=N\CCCCCC/N=C(N)/N=C(\N)Nc1ccc(Cl)cc1)/N=C(\N)Nc1ccc(Cl)cc1` [Sample P, chlorhexidine diacetate], the “Log Reduction, Average, all microbes” value ([4]; 0.20% (wt. %)) was 2.06, the “Log Reduction, Average, all microbes” value ([4]; 0.60% (wt. %)) was 3.02 and the “Log Reduction, Average, all microbes” value ([4]; 1.00% (wt. %)) was 3.71. For the same compound, the “average Log Reduction (LR) in microbial population across all microbes” value ([4]; 0.60 wt % active) was 4.09, the “average Log Reduction (LR) in microbial population across all microbes” value ([4]; 1.0 wt % active) was 5.17 and the “Log Reduction” value ([5]; 0.20% (wt. %)) was 1.29. For the same compound, the “Log Reduction” value ([5]; 0.60% (wt. %)) was 1.36, the “Log Reduction” value ([5]; 1.00% (wt. %)) was 1.55 and the “Log Reduction” value ([6]; 0.20% (wt. %)) was 1.54. For the same compound, the “Log Reduction” value ([6]; 0.60% (wt. %)) was 1.59, the “Log Reduction” value ([6]; 1.00% (wt. %)) was 3.07 and the “Log Reduction” value ([7]; 0.20% (wt. %)) was 2.17. For the same compound, the “Log Reduction” value ([7]; 0.60% (wt. %)) was 3.34, the “Log Reduction” value ([7]; 1.00% (wt. %)) was 4.34 and the “Log Reduction” value ([1]; 0.20% (wt. %)) was 3.22. The “Log Reduction” value ([1]; 0.60% (wt. %)) was 4.93, the “Log Reduction” value ([1]; 1.00% (wt. %)) was 5.07 and the “Log Reduction” value ([2]; 0.20% (wt. %)) was 1.57. The “Log Reduction” value ([2]; 0.60% (wt. %)) was 3.57, the “Log Reduction” value ([2]; 1.00% (wt. %)) was 3.75 and the “Log Reduction” value ([3]; 0.20% (wt. %)) was 2.56. For the same compound, the “Log Reduction” value ([3]; 0.60% (wt. %)) was 3.35 and the “Log Reduction” value ([3]; 1.00% (wt. %)) was 4.48.

“benzalkonium chloride (C12-C14) [Sample D]” was tested, and the “Log Reduction, Average, all microbes” value ([4]; 0.10%) was 3.28, the “Log Reduction, Average, all microbes” value ([4]; 0.25%) was 3.50 and the “Log Reduction, Average, all microbes” value ([4]; 0.50%) was 3.78. The “log reduction, Average, all microbes” value ([4]; 0.10%) was 4.84, the “log reduction, Average, all microbes” value ([4]; 0.25%) was 5.21 and the “log reduction, Average, all microbes” value ([4]; 0.50%) was 5.41. The “Log Reduction” value ([5]; 0.10%) was 3.49, the “Log Reduction” value ([5]; 0.25%) was 3.77 and the “Log Reduction” value ([5]; 0.50%) was 3.91. The log reduction ([5]; 0.10%) was 5.61, the log reduction ([5]; 0.25%) was 5.97 and the log reduction ([5]; 0.50%) was 6.02. The “Log Reduction” value ([6]; 0.10%) was 2.87, the “Log Reduction” value ([6]; 0.25%) was 3.17 and the “Log Reduction” value ([6]; 0.50%) was 3.29. For the same compound, the log reduction ([6]; 0.10%) was 4.62, the log reduction ([6]; 0.25%) was 4.77 and the log reduction ([6]; 0.50%) was 5.07. The “Log Reduction” value ([7]; 0.10%) was 2.70, the “Log Reduction” value ([7]; 0.25%) was 2.86 and the “Log Reduction” value ([7]; 0.50%) was 3.04. It also gave a log reduction ([7]; 0.10%) of 4.14, a log reduction ([7]; 0.25%) of 4.34 and a log reduction ([7]; 0.50%) of 4.55. The “Log Reduction” value ([1]; 0.10%) was 3.59, the “Log Reduction” value ([1]; 0.25%) was 3.97 and the “Log Reduction” value ([1]; 0.50%) was 4.19. For the same compound, the log reduction ([1]; 0.10%) was 5.37, the log reduction ([1]; 0.25%) was 5.67 and the log reduction ([1]; 0.50%) was 5.97. For the same compound, the “Log Reduction” value ([2]; 0.10%) was 3.39, the “Log Reduction” value ([2]; 0.25%) was 3.47 and the “Log Reduction” value ([2]; 0.50%) was 3.75. For the same compound, the log reduction ([2]; 0.10%) was 4.47, the log reduction ([2]; 0.25%) was 4.98 and the log reduction ([2]; 0.50%) was 5.05. The “Log Reduction” value ([3]; 0.10%) was 3.65, the “Log Reduction” value ([3]; 0.25%) was 3.75 and the “Log Reduction” value ([3]; 0.50%) was 4.51. It also gave a log reduction ([3]; 0.10%) of 4.84, a log reduction ([3]; 0.25%) of 5.55 and a log reduction ([3]; 0.50%) of 5.77.
